Source: patent US10752581B2, “4-((2-hydroxy-3-methoxybenzyl)amino)benzenesulfonamide derivatives as potent and selective inhibitors of 12-lipoxygenase” (Eastern Virginia Medical School, priority 2013, dated 2020)

Legend:
[1] = tested on: human donor islet preparations; test: Glucose-stimulated insulin secretion in human islets; format: cell-based; conditions: cytokines (TNFα, IL-1β, IFNγ); 3 mM or 18 mM glucose
Protocol: FIGS. 3D and 3E show results from glucose-stimulated insulin secretion in human donor islet preparations in response to 3 mM glucose (Low) or 18 mM glucose (High) for control (untreated) islets. […] FIGS. 3D and 3E represent results obtained in different human donor islet preparations.

[2] = tested on: washed human platelets; test: PAR4-AP-induced calcium mobilization; format: cell-based; conditions: 200 μM PAR4-AP; increasing concentrations
Protocol: Blood was centrifuged at 200 g for 13 min at room temperature.

[3] = Parallel Artificial Membrane Permeability Assay (PAMPA); conditions: PAMPA at pH 7.4
[4] = tested on: Caco-2; test: Caco-2 assay permeability; format: in vitro ADME; conditions: A→B
[5] = In Vivo PK (Mouse)
[6] = tested on: FcγRIIa-stimulated platelets; test: Dense granule secretion (ATP release) after FcγRIIa stimulation; format: cell-based, human; conditions: compared with DMSO treated platelets
Description: Preparation of washed human platelets: Prior to blood collection written informed consent was obtained from all volunteers. Washed platelets were isolated from the blood of healthy volunteers as previously described (14). Washed platelets were resuspended in tyrodes buffer at 3.0×10^8 platelets/mL unless otherwise indicated.
FcγRIIa-mediated platelet activation: FcγRIIa-mediated platelet activation was initiated by two distinct models; either 1) FcγRIIa antibody cross-linking or 2) CD9 monoclonal antibody stimulation. To cross-link FcγRIIa, washed platelets were incubated with IV.3, an FcγRIIa mouse monoclonal antibody, for one minute followed by the addition of a goat anti-mouse (GAM) IgG antibody to cross-link FcγRIIa. The concentration of FcγRIIa cross-linking antibodies used for each experiment is indicated in the text. Alternatively, washed human platelets were stimulated with an anti-CD9 monoclonal antibody to activate FcγRIIa mediated signaling. Due to inter-individual variability in anti-CD9 response, a range of anti-CD9 concentration (0.25-1 μg/ml) was used to achieve an aggregation of EC80. […]
Dense granule secretion: ATP release was measured from washed platelets as surrogate for dense granule secretion. […] Platelets were stimulated with FcγRII antibody cross-linking under stirring conditions and fluorescence was measured in real-time using a lumi-aggregometer.

[7] = tested on: FcγRIIa-stimulated platelets; test: Syk phosphorylation after FcγRIIa cross-linking; format: cell-based, human; conditions: ML355 (20 μM)
Protocol: FIGS. 15A-15B show the role of 12-LOX in regulating the FcγRIIa signaling complex. Washed human platelets were pre-treated with ML355 (20 μM) or vehicle control prior to IV.3 and GAM stimulation. (FIG. 15A) Immunoprecipitation of FcγRIIa at 15, 30, and 60 seconds post crosslinking and measured for phosphorylation via Western blot. (FIG. 15B) Platelets were lysed following FcγRIIa cross-linking in the presence of ML355 or DMSO were immunoblotted for active (pY323) and total Syk.
Phosphorylation of FcγRIIa results in recruitment and activation of the tyrosine kinase Syk which is crucial for the formation of the LAT signalosome. The phosphorylation of Syk was measured following FcγRIIa stimulation of platelets in the presence or absence of ML355. The degree of Syk phosphorylation in response to FcγRIIa cross-linking in the presence of ML355 was varied in the subjects tested and may be due to inter-individual variability. […] To assess if 12-LOX regulates PLCy2 activation downstream of FcγRIIa, PLCy2 phosphorylation was measured in washed human platelets in the presence or absence of ML355. Platelets stimulated by FcγRIIa antibody cross-linking were phosphorylated within 15 seconds following stimulation. […]

[8] = male, CD1, mouse, in vivo, intravenous, 3 mpk
[9] = male, CD1, mouse, in vivo, iv, 3 mg/kg
[10] = male, CD1, mouse, in vivo, po, 30 mg/kg

COc1cccc(CNc2ccc(S(=O)(=O)Nc3nc4ccccc4s3)cc2)c1O [Compound 35, N-(benzo[d]thiazol-2-yl)-4-((2-hydroxy-3-methoxybenzyl)amino)benzenesulfonamide]
glucose-stimulated insulin secretion with cytokines [1]: Uncoupling of glucose-stimulated insulin secretion by cytokines is inhibited | PAR4-AP-induced calcium mobilization (in words) [2]: Calcium mobilization was decreased | permeability (1 × 10^−6 cm/s) [3]: 394^c 1 × 10^−6 cm/s | permeability (1 × 10^−6 cm/s) [4]: 1.5 (A→B)^a 1 × 10^−6 cm/s | time remaining over IC50 value ([5]; 30 mpk dosing): over 12 hours | % F ([5]; PO, 30 mpk): 19.8% | Vd [5, 8]: 0.55 L/kg | clearance [5, 8]: 3.4 mL/min/kg | AUC(0-inf) [5, 9]: 34 µM·h | Cmax [5, 9]: 112 µM | Vd [5, 9]: 0.55 L/kg | clearance [5, 9]: 3.4 mL/min/kg | half-life [5, 9]: 3.4 h | AUC(0-inf) [5, 10]: 67 µM·h | Cmax [5, 10]: 38 µM | bioavailability [5, 10]: ~20% | half-life [5, 10]: 2.9 h | ATP release (dense granule secretion) [6]: significant decrease in ATP release | Syk phosphorylation [7]: attenuation of Syk phosphorylation in the presence of ML355 was minor
